# Columns and labels:
# EGFR tyrosine kinase = target: T1, EGFR tyrosine kinase (Homo sapiens, UniProt P00533); assay: Protein tyrosine kinase phosphorylation assay, Test (a), EGFR; format: biochemical; conditions: ATP at Km concentration; read-out: IC50 (nM) Test (a) (Inhibition of EGFR tyrosine kinase protein phosphorylation)
# T1 construct: Recombinant intracellular fragments of EGFR, erbB2 and erbB4; made in house; host or cells: baculovirus/Sf21 insect cells (cleared lysate used)
# Description: (§1) This test measures the ability of a test compound to inhibit the phosphorylation of a tyrosine containing polypeptide substrate by an erbB tyrosine kinase enzyme.
# (§2) Recombinant intracellular fragments of EGFR, erbB2 and erbB4 (accession numbers X00588, X03363 and L07868 respectively) were cloned and expressed in the baculovirus/Sf21 system. Lysates were prepared from these cells by treatment with ice-cold lysis buffer (20 mM N-2-hydroxyethylpiperizine-N′-2-ethanesulfonic acid (HEPES) pH7.5, 150 mM NaCl, 10% glycerol, 1% Triton X-100, 1.5 mM MgCl2, 1 mM ethylene glycol-bis(β-aminoethyl ether) N′,N′,N′,N′-tetraacetic acid (EGTA), plus protease inhibitors and then cleared by centrifugation.
# (§3) Constitutive kinase activity of the recombinant protein was determined by its ability to phosphorylate a synthetic peptide (made up of a random co-polymer of Glutamic Acid, Alanine and Tyrosine in the ratio of 6:3:1). […]
# (§4) The immobilised phospho-peptide product of the reaction was detected by immunological methods. […] After further washing, HRP activity in each well of the plate was measured colorimetrically using 22′-Azino-di-[3-ethylbenzthiazoline sulfonate (6)]diammonium salt crystals (ABTS™ from Roche) as a substrate.
# (§5) Quantification of colour development and thus enzyme activity was achieved by the measurement of absorbance at 405 nm on a Molecular Devices ThermoMax microplate reader. […]
# erbB2 tyrosine kinase = target: T2, erbB2 tyrosine kinase (Homo sapiens, UniProt P04626); assay: Protein tyrosine kinase phosphorylation assay, Test (a), erbB2; format: biochemical; conditions: ATP at Km concentration; read-out: IC50 (nM) Test (a) (Inhibition of erbB2 tyrosine kinase protein phosphorylation)
# T2 construct: Recombinant intracellular fragments of EGFR, erbB2 and erbB4; made in house; host or cells: baculovirus/Sf21 insect cells (cleared lysate used)
# T2 sequence (P04626 676-1255 limits assumed): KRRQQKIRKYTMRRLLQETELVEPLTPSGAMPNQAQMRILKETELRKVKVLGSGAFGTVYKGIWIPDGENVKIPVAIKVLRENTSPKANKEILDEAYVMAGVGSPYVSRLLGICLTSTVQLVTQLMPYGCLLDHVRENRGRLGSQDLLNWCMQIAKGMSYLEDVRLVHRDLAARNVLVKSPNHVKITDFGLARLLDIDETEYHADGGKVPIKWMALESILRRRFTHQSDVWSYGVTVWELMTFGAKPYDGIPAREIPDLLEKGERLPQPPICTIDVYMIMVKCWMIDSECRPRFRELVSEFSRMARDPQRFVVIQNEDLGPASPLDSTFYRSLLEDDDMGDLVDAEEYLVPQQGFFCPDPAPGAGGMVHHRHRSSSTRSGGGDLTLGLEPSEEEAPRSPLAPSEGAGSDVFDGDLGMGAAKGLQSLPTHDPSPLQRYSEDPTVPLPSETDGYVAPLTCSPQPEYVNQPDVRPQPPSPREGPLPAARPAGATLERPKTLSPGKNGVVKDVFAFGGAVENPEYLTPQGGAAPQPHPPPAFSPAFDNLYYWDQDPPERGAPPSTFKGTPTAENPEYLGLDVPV
# Description: as §1, §2, §3, §4, §5
# T1 sequence (P00533 669-1210 limits assumed): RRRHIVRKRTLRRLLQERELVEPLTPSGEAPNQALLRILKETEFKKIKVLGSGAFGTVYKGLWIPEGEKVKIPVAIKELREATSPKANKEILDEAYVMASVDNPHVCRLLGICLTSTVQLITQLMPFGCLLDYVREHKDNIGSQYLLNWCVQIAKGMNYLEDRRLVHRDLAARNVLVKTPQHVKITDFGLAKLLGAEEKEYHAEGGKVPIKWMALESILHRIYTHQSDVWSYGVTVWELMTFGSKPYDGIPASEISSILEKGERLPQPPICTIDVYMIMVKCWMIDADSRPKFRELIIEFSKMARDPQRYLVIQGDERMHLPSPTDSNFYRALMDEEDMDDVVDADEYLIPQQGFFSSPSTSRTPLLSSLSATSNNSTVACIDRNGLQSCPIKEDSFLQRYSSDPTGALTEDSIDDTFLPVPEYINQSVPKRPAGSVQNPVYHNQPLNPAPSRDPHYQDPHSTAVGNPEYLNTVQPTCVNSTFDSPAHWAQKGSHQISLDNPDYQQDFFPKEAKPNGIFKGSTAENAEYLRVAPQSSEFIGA
compound,measurement,setting,value
"COc1cc2ncnc(Nc3cccc(Cl)c3F)c2cc1OC1CCN(C(=O)CO)CC1 [Example 1, 4-(3-chloro-2-fluoroanilino)-6-[1-(hydroxyacetyl)piperidin-4-yloxy]-7-methoxyquinazoline]",IC50,EGFR tyrosine kinase,3 nM
same,IC50,erbB2 tyrosine kinase,59 nM
same,melting point,,195.5 to 196.5 °C

# Reference: patent US7148230B2, “Quinazoline derivatives” (AstraZeneca AB, priority 2003, dated 2006)
